doi:10.1101/2023.10.20.563248v1 (biorxiv, 2023)

Key:
Details in all cases: 1 µM; inhibitor
CSF1R = CSF1R (Homo sapiens, UniProt P07333)
NEK3 = NEK3 (Homo sapiens, UniProt P51956)
MEK5 = MEK5 (Homo sapiens, UniProt Q13163)
FGR = FGR (Homo sapiens, UniProt P09769)
PRK2 = PRK2 (Homo sapiens, UniProt Q16513)
FRK = FRK (Homo sapiens, UniProt P42685)
PYK2 = PYK2 (Homo sapiens, UniProt Q14289)
NEK7 = NEK7 (Homo sapiens, UniProt Q8TDX7)
TNK1 = TNK1 (Homo sapiens, UniProt Q13470)
RET = RET (Homo sapiens, UniProt P07949)
PAK6 = PAK6 (Homo sapiens, UniProt Q9NQU5)
RPS6KA2 = RPS6KA2 (Homo sapiens, UniProt Q15349)
ITK = ITK (Homo sapiens, UniProt Q08881)
AKT3 = AKT3 (Homo sapiens, UniProt Q9Y243)
RIPK5 = RIPK5 (Homo sapiens, UniProt Q6XUX3)
BRSK2 = BRSK2 (Homo sapiens, UniProt Q8IWQ3)
LCK = LCK (Homo sapiens, UniProt P06239)
WEE1 = WEE1 (Homo sapiens, UniProt P30291)
MKNK2 = MKNK2 (Homo sapiens, UniProt Q9HBH9)
CDK13 = CDK13 (Homo sapiens, UniProt Q14004)
p38a = p38a (Homo sapiens, UniProt Q16539)
GRK7 = GRK7 (Homo sapiens, UniProt Q8WTQ7)
EPHA4 = EPHA4 (Homo sapiens, UniProt P54764)
DAPK2 = DAPK2 (Homo sapiens, UniProt Q9UIK4)
PASK = PASK (Homo sapiens, UniProt Q96RG2)
CAMKK1 = CAMKK1 (Homo sapiens, UniProt Q8N5S9)
CDK9 = CDK9 (Homo sapiens, UniProt P50750)
AXL = AXL (Homo sapiens, UniProt P30530)
GRK3 = GRK3 (Homo sapiens, UniProt P35626)
RPS6KA6 = RPS6KA6 (Homo sapiens, UniProt Q9UK32)
CDK2 = CDK2 (Homo sapiens, UniProt P24941)

Chain of PYK2 (Q14289 whole entry): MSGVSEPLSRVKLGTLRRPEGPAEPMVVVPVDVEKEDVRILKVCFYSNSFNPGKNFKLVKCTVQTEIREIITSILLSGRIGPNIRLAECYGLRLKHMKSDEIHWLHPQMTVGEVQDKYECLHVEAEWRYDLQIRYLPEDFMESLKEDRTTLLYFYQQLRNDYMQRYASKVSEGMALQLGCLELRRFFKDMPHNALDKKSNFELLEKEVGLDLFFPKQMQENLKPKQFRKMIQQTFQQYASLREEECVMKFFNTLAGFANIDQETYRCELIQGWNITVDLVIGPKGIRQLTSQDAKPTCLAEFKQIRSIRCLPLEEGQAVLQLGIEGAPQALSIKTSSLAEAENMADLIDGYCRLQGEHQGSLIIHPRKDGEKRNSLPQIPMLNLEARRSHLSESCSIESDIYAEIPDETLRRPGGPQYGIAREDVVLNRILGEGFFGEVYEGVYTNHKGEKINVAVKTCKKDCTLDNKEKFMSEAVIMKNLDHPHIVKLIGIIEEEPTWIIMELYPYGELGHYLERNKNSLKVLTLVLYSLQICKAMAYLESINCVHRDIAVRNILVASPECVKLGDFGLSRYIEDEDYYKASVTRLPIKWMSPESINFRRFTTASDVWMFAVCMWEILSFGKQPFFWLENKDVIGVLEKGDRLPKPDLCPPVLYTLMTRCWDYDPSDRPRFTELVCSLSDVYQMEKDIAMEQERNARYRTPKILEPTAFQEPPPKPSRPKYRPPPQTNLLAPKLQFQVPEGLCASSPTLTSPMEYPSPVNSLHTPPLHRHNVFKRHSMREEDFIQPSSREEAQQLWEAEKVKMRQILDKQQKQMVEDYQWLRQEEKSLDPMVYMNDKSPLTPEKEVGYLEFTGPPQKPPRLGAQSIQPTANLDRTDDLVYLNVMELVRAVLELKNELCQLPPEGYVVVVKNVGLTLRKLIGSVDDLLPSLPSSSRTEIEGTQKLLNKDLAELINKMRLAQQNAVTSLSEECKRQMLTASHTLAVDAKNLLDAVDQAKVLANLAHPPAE
Chain of PASK (Q96RG2 whole entry): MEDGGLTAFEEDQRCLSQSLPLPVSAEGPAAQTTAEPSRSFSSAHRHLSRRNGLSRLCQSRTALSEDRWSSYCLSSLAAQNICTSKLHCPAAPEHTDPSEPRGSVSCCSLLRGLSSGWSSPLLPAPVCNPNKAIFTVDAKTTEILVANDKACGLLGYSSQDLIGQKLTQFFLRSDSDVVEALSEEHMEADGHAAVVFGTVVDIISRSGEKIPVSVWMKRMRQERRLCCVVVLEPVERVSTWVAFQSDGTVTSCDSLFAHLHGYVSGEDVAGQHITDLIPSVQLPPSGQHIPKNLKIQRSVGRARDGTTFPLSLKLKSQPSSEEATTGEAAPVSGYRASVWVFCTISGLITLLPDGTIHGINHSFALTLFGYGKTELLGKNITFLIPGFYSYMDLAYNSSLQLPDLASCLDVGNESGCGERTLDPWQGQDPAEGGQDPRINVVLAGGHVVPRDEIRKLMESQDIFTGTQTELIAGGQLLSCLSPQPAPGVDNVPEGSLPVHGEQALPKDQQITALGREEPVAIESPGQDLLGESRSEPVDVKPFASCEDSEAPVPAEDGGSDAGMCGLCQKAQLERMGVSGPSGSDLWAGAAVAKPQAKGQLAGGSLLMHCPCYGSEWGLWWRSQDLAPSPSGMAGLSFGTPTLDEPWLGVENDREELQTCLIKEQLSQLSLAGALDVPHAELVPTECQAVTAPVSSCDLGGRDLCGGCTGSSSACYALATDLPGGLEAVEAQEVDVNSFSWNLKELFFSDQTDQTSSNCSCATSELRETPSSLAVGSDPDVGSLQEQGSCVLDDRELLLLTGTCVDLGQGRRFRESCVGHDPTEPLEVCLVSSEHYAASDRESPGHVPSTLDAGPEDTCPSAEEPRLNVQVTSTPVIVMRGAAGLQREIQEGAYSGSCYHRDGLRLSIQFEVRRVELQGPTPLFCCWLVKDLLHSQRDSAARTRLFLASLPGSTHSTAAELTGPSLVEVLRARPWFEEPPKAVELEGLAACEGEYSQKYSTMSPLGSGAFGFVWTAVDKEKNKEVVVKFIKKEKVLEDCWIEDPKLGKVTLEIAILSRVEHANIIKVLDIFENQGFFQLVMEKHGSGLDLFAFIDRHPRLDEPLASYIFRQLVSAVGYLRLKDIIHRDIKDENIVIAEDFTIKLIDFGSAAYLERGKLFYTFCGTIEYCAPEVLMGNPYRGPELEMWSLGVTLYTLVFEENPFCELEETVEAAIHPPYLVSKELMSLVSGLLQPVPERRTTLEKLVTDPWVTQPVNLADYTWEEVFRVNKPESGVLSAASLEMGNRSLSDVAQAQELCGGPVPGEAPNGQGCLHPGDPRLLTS
Chain of MKNK2 (Q9HBH9 whole entry): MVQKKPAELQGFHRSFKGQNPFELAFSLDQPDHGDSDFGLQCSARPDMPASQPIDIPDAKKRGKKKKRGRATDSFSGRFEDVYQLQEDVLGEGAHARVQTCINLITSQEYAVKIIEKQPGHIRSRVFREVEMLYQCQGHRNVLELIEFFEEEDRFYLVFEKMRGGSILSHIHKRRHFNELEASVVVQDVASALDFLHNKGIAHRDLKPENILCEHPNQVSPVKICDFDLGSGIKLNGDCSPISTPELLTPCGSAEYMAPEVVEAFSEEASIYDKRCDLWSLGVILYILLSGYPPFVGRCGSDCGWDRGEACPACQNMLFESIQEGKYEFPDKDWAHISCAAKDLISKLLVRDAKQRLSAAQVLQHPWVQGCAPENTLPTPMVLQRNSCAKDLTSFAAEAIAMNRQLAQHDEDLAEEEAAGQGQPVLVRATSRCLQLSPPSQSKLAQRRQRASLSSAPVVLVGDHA
Chain of TNK1 (Q13470 whole entry): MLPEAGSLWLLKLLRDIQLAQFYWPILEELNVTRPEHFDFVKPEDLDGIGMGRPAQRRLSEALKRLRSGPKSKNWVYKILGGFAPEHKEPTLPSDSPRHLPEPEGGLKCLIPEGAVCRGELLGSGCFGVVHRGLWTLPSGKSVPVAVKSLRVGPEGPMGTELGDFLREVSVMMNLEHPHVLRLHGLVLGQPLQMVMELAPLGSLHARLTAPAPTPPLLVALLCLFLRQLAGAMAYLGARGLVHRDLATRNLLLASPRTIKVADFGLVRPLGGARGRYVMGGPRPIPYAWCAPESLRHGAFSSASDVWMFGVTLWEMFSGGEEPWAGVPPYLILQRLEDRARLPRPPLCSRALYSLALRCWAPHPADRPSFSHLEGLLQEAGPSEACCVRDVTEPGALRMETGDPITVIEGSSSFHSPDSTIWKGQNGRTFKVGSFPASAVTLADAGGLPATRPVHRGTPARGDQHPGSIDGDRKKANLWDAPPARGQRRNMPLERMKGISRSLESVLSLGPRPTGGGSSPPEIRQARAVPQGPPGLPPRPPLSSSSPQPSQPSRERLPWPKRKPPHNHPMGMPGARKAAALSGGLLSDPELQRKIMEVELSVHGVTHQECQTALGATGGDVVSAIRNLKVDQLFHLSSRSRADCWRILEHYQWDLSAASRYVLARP
Chain of EPHA4 (P54764 whole entry): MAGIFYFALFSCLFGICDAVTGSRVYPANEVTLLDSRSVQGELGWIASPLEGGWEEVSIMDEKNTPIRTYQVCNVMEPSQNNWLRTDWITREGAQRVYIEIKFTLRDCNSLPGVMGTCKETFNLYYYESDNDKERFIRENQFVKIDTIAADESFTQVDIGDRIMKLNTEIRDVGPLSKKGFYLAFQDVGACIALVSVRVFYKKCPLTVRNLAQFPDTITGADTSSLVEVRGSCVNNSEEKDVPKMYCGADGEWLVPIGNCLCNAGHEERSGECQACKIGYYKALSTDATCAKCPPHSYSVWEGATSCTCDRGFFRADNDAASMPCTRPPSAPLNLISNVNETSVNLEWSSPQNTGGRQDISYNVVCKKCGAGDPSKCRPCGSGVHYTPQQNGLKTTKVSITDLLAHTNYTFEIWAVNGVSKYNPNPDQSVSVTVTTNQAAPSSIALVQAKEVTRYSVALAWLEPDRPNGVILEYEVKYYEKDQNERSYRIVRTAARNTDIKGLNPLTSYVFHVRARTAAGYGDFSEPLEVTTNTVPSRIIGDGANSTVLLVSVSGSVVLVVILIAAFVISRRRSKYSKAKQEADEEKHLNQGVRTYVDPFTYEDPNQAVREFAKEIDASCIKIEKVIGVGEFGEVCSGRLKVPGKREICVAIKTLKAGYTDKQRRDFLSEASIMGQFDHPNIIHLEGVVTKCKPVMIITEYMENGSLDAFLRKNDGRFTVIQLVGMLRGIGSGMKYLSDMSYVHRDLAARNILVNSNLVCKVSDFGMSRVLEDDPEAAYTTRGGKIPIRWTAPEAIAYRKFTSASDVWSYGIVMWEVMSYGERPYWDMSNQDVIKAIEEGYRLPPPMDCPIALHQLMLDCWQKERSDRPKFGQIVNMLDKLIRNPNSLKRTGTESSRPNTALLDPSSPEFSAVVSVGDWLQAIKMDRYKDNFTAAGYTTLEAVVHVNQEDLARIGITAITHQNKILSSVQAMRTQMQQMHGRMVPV
Chain of CAMKK1 (Q8N5S9 whole entry): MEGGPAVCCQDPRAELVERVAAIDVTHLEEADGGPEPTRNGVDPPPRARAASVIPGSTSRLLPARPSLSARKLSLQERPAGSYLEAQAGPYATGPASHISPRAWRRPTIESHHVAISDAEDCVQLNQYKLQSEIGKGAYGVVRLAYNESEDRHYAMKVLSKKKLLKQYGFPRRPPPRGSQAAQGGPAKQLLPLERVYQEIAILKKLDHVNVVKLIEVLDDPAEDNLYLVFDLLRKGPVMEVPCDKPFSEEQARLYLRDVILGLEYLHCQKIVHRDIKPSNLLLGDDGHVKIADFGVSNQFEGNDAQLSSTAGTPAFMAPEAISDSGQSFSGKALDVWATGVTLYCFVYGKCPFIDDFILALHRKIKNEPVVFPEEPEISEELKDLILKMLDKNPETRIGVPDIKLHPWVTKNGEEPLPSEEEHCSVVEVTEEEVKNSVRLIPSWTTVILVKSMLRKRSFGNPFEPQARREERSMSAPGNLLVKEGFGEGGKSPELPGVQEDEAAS

O=C1NCCCCCNc2nc(c3ccccc3n2)Nc2cc1[nH]n2 [21c, (Z)-3^1H-2,5,11-triaza-1(4,2)-quinazolina-3(3,5)-pyrazolacycloundecaphan-4-one]
21c Remaining activity, percent of control [%] (CSF1R): 90.9% | 21c Remaining activity, percent of control [%] (NEK3): 94.1% | 21c Remaining activity, percent of control [%] (MEK5): 70.1% | 21c Remaining activity, percent of control [%] (FGR): 75.3% | 21c Remaining activity, percent of control [%] (PRK2): 89.5% | 21c Remaining activity, percent of control [%] (FRK): 104.0% | 21c Remaining activity, percent of control [%] (PYK2): 80.8% | 21c Remaining activity, percent of control [%] (NEK7): 98.8% | 21c Remaining activity, percent of control [%] (TNK1): 96.2% | 21c Remaining activity, percent of control [%] (RET): 122.5% | 21c Remaining activity, percent of control [%] (PAK6): 95.0% | 21c Remaining activity, percent of control [%] (RPS6KA2): 84.0% | 21c Remaining activity, percent of control [%] (ITK): 99.7% | 21c Remaining activity, percent of control [%] (AKT3): 102.5% | 21c Remaining activity, percent of control [%] (RIPK5): 122.0% | 21c Remaining activity, percent of control [%] (BRSK2): 97.8% | 21c Remaining activity, percent of control [%] (LCK): 92.0% | 21c Remaining activity, percent of control [%] (WEE1): 88.0% | 21c Remaining activity, percent of control [%] (MKNK2): 105.8% | 21c Remaining activity, percent of control [%] (CDK13): 101.2% | 21c Remaining activity, percent of control [%] (p38a): 92.7% | 21c Remaining activity, percent of control [%] (GRK7): 89.2% | 21c Remaining activity, percent of control [%] (EPHA4): 67.5% | 21c Remaining activity, percent of control [%] (DAPK2): 100.3% | 21c Remaining activity, percent of control [%] (PASK): 100.8% | 21c Remaining activity, percent of control [%] (CAMKK1): 94.6% | 21c Remaining activity, percent of control [%] (CDK9): 83.3% | 21c Remaining activity, percent of control [%] (AXL): 80.2% | 21c Remaining activity, percent of control [%] (GRK3): 97.4% | 21c Remaining activity, percent of control [%] (RPS6KA6): 73.5% | 21c Remaining activity, percent of control [%] (CDK2): 103.0%
